Source: US20080187512A1, “Treatment for spinal muscular atrophy” (Academia Sinica, priority 2007, published 2008)

Experiments:
Format in all cases: cell-based, mouse
SMN2 = SMN2 splicing pattern, semi-quantitative RT-PCR in SMN2-NSC34 cells; set-up: key to SMN2 splicing pattern SMN2-NSC34: −: no effect; +: effective; +++: most effective
Protocol: Cell culture and chemical/dsRNA treatment. Mouse embryonic fibroblasts (MEFs) were prepared using the standard protocol. Briefly, E13.5 day embryo was isolated; the uterine deciduas were cut away, and the yolk sac was removed. The embryo was then scraped out to remove non-fibroblastic tissue, and the head severed for genotyping. Embryo body was minced in 0.25% Trypsin-EDTA and incubated for 30 min. It was then added to MEF culture media, and the cell suspension spun for ˜5 min at 1,000 rpm in the tissue culture centrifuge to pellet cells. The supernatant was aspirated off and the cell pellet immediately resuspended in 10 mL of fresh MEF culture media. The MEFs were allowed to reach confluency so the cells could be passaged for further experiments. Cultured MEFs and SMN2-NSC34 cells were maintained in Dulbecco's modified Eagle medium (Invitrogen, Carlsbad, Calif.) containing 10% heat-inactivated fetal bovine serum (Hyclone, Logan, Utah) and 1% penicillin-streptomycin (Invitrogen, Carlsbad, Calif.) and were incubated at 37° C. in a 5% CO2 humidified atmosphere. The cells were plated the day preceding treatment with each chemical and harvested at the indicated time.
Semi-quantitative PCR/RT-PCR. The genomic DNA from E13.5 SMA embryos was extracted. A specific primer pair, SMN forward 5′-[…]-3′ (SEQ ID NO:21) and SMN backward 5′-[…]-3′ (SEQ ID NO:22), was designed for recognition of both murine Smn and human SMN2. The PCR program initially started with a 95° C. denaturation for 10 min, followed by 19 to 26 cycles of 95° C./1 min. 53° C./1.5 min, 72° C./2 min to assay the linear range for both Smn and SMN2. For RT-PCR assay, total RNA was extracted at indicated time points from SMN2-NSC34 cells with sodium vanadate, TSA, and aclarubicin treatment or with an increasing amount of Stat5A1*6 transfection by using the TRizol reagent (Invitrogen, Carlsbad, Calif.). To amplify the exon7 inclusion/exclusion form of SMN2 transcripts, RT-PCR were performed using a primer set P5P6 as previously described (15). The transcript from the mouse glyceraldehyde-3-phosphate dehydrogenase (Gapdh) gene or the β-Actin gene was amplified using the primer pairs: Gapdh forward: 5′-[…]-3′ (SEQ ID NO:23), and backward: 5′-[…]-3′ (SEQ ID NO:24) (56° C.), and β-Actin forward: 5′-[…]-3′ (SEQ ID NO:25), and backward 5′-[…]-3′ (SEQ ID NO:26) (59° C.), and this allowed control of equal amounts of template. […] The gel images were digitally captured with a CCD camera and analyzed with the Alphalmager™. […] Relative total SMN2 transcript levels were determined from Stat5A1*6 transfected SMN2-NSC34 cells in a minimum of three independent experiments. Differences in ratios were determined to be significant by an independent two-tailed t-test, with *, P<0.05, **, P<0.005, ***, p<0.001.

ERK1/2 (pT202/pY204) = assay: Signaling pathway screen in SMN2-NSC34 cells
JNK (pT183/pY185) = assay: Signaling pathway screen in SMN2-NSC34 cells
Stat1 (pY701) = assay: Signaling pathway screen in SMN2-NSC34 cells
Stat3 (pY705) = assay: Signaling pathway screen in SMN2-NSC34 cells

**Q.** How did the “SMN2 splicing pattern SMN2-NSC34” value (SMN2) turn out when Sodium vanadate was run?
**A.** +++

**Q.** And the “efficiency in increasing full length SMN2 transcripts relative to the other compounds” value (SMN2)?
**A.** most efficient

**Q.** And the “treatment time after which the full length SMN2 expression level was enhanced” value (SMN2)?
**A.** 2 to 4 h

**Q.** What about the “ERK1/2 (pT202/pY204) cellular response” value (ERK1/2 (pT202/pY204); 4 hrs) of the same substance?
**A.** +

**Q.** What about the “ERK1/2 (pT202/pY204) cellular response” value (ERK1/2 (pT202/pY204); 8 hrs) of the same substance?
**A.** ++

**Q.** And the “JNK (pT183/pY185) cellular response” value (JNK (pT183/pY185); 4 hrs)?
**A.** +/−

**Q.** And the “JNK (pT183/pY185) cellular response” value (JNK (pT183/pY185); 8 hrs)?
**A.** +

**Q.** And the “Stat1 (pY701) cellular response” value (Stat1 (pY701); 4 hrs)?
**A.** −

**Q.** What about the “Stat1 (pY701) cellular response” value (Stat1 (pY701); 8 hrs) of the same substance?
**A.** +/−

**Q.** What about the “Stat3 (pY705) cellular response” value (Stat3 (pY705); 4 hrs) of the same substance?
**A.** +

**Q.** And the “Stat3 (pY705) cellular response” value (Stat3 (pY705); 8 hrs)?
**A.** ++
